In patent publication US7192953B2, “Antibacterial agents” (Vernalis (Oxford) Limited, priority 2002, dated 2007):
Values after ≈ are worked out from the molar mass of the structure shown.

Columns and labels:
Format in all cases: cell-based
H. influenzae = test: MIC by agar plate dilution against clinical isolates of H. influenzae; conditions: 4 strains of H. influenzae (clinical isolates), 18 to 24 hr, 35° C; for MIC: Haemophilus influenzae, read-out: MIC or MIC range, H. Influenzae
Experimental: (§1) Minimal Inhibitory concentrations (MIC) of inhibitors against clinical isolates of S. pneumoniae, H. influenzae and M. catarrhalis obtained from the Public Health and Clinical Microbiology Laboratory, Addenbrooke's Hospital, Hills Road, Cambridge CB2 2QW, UK, were determined by a standard agar plate dilution method following recommended in British Society for Antimicrobial Chemotherapy Working Party. 1991. “A guide to sensitivity testing British Society for Antimicrobial Chemotherapy, London, United Kingdom”. Briefly Iso-Sensitest agar (pH 7.2: Oxoid, United Kingdom) was employed supplemented with 5% horse blood (Oxoid) and 20 μg of NAD (Sigma) per ml to support growth of fastidious bacteria. The inoculum used was approximately 10^4 colony forming units of each isolate contained in a volume of 1 μl. Plates were incubated 18 to 24 hr in air, or for fastidious bacteria an atmosphere enriched with 4–6% carbon dioxide at 35° C. The MIC was determined as the lowest concentration of an antimicrobial tested that inhibited growth of the inoculum, disregarding a single persisting colony or faint haze caused by the inoculation.
(§2) The compounds of the Examples were are antibacterially active in the above assays, The following table states the MICs or MIC ranges of the tested compounds against 6 strains of S. pneumoniae, 4 strains of H. influenzae and 3 strains of M. catarrhalis.

M. catarrhalis = test: MIC by agar plate dilution against clinical isolates of M. catarrhalis; conditions: 3 strains of M. catarrhalis (clinical isolates), 18 to 24 hr, 35° C; for MIC: Moraxella catarrhalis, read-out: MIC or MIC range, M. catarrhalis
Experimental: as §1, §2

S. pneumoniae = test: MIC by agar plate dilution against clinical isolates of S. pneumoniae; conditions: 6 strains of S. pneumoniae (clinical isolates), 18 to 24 hr, 35° C; for MIC: Streptococcus pneumoniae, read-out: MIC or MIC range, S. pneumoniae
Experimental: as §1, §2

Compound | MIC or MIC range, H. Influenzae (H. influenzae) [µg/mL] | MIC or MIC range, M. catarrhalis (M. catarrhalis) [µg/mL] | MIC or MIC range, S. pneumoniae (S. pneumoniae) [µg/mL] | MIC (H. influenzae) [µg/mL] | MIC (M. catarrhalis) [µg/mL] | MIC (S. pneumoniae) [µg/mL]
CN(C(=O)N1CCCCN1C(=O)[C@H](CC1CCCC1)CN(O)C=O)c1ccccc1 [Example 21, 2-[(2R)-Cyclopentylmethyl-3-(formylhydroxyamino)-propionyl]-tetrahydropyridazine-1-Carboxylic acid methylphenylamide] | 4 to 16 | 0.125 (≈ 0.3 µM) | 1 to 4 |  |  | 
CC(C)(C)OC(=O)N1CCCN1C(=O)[C@H](CC1CCCC1)CN(O)C=O [Example 23, 2-[(2R)-Cyclopentylmethyl-3-(formylhydroxyamino)-propionyl]-pyrazolidine-1-Carboxylic acid tert-butyl ester] | 0.5 to 2 | <0.125 | 8 to 16 |  |  | 
CC(C)(C)OC(=O)N1CCCCN1C(=O)[C@H](CC1CCCC1)CN(O)C=O [Example 24, 2-[(2R)-Cyclopentylmethyl-3-(formylhydroxyamino)-propionyl]-tetrahydropyridazine-1-Carboxylic acid tert-butyl ester] |  |  |  | 1 to 4 (≈ 2.61 to 10.4 µM) | < 0.125 | 4 to 16 (≈ 10.4 to 41.7 µM)
COCC(=O)N1CCCN1C(=O)[C@H](CC1CCCC1)CN(O)C=O [Example 26, N-{(2R)-Cyclopentylmethyl-3-[2-(2-methoxyacetyl)-pyrazolidin-1-yl]-3-oxo-propyl}N-hydroxyformamide] |  |  |  | 1 to 8 (≈ 2.93 to 23.4 µM) | 0.125 (≈ 0.366 µM) | 8 (≈ 23.4 µM)
O=CN(O)C[C@@H](CC1CCCC1)C(=O)N1CCCN1C(=O)c1ccccc1 [Example 27, N-{(2R)-Cyclopentylmethyl-3-[2-benzoyl-pyrazolidin-1-yl]-3-oxo-propyl}-N-hydroxyformamide] |  |  |  | 2 to 16 (≈ 5.36 to 42.8 µM) | 0.06 (≈ 0.161 µM) | 16 (≈ 42.8 µM)
O=CN(O)C[C@@H](CC1CCCC1)C(=O)N1CCCN1C(=O)c1ccc(C(F)(F)F)cc1 [Example 28, N-{(2R)-Cyclopentylmethyl-3-[2-(4-trifluoromethylbenzoyl)-pyrazolidin-1-yl]-3-oxo-propyl}-N-hydroxyformamide] |  |  |  | 16 (≈ 36.2 µM) | 0.06 (≈ 0.136 µM) | 0.5 to 4 (≈ 1.13 to 9.06 µM)
O=CN(O)C[C@@H](CC1CCCC1)C(=O)N1CCCN1C(=O)Cc1ccccc1 [Example 29, N-{(2R)-Cyclopentylmethyl-3-[2-phenylacetyl-pyrazolidin-1-yl]-3-oxo-propyl}-N-hydroxyformamide] |  |  |  | 2 to 16 (≈ 5.16 to 41.3 µM) | 0.06 (≈ 0.155 µM) | 4 to 8 (≈ 10.3 to 20.6 µM)
O=CN(O)C[C@@H](CC1CCCC1)C(=O)N1CCCN1C(=O)C1CCCCC1 [Example 31, N-{(2R)-Cyclopentylmethyl-3-[2-Cyclohexanecarbonyl-pyrazolidin-1-yl]-3-oxo-propyl}-N-hydroxyformamide] |  |  |  | 4 to 16 (≈ 10.5 to 42.2 µM) | 0.06 (≈ 0.158 µM) | 8 (≈ 21.1 µM)
O=CN(O)C[C@@H](CC1CCCC1)C(=O)N1CCCN1C(=O)c1ccc(N2CCOCC2)nc1 [Example 32, N-{(2R)-Cyclopentylmethyl-3-[2-(6-morpholin-4-yl-pyridine-3-Carbonyl)-pyrazolidin-1-yl]-3-oxo-propyl}-N-hydroxyformamide] |  |  |  | 16 (≈ 34.8 µM) | 0.25 (≈ 0.544 µM) | 1 to 8 (≈ 2.18 to 17.4 µM)
COc1ccc(C(=O)N2CCCN2C(=O)[C@H](CC2CCCC2)CN(O)C=O)cc1 [Example 33, N-{(2R)-Cyclopentylmethyl-3-[2-(4-methoxybenzoyl)-pyrazolidin-1-yl]-3-oxo-propyl}-N-hydroxyformamide] |  |  |  | 16 to 32 (≈ 39.7 to 79.3 µM) | 0.06 (≈ 0.149 µM) | 4 to 16 (≈ 9.91 to 39.7 µM)
O=CN(O)C[C@@H](CC1CCCC1)C(=O)N1CCCN1C(=O)c1ccc2c(c1)OCO2 [Example 34, N-{(2R)-Cyclopentylmethyl-3-[2-(benzo[1,3]-dioxole-5-Carbonyl)-pyrazolidin-1-yl]-3-oxo-propyl}N-hydroxyformamide] |  |  |  | 4 to 16 (≈ 9.58 to 38.3 µM) | 0.125 (≈ 0.299 µM) | 8 to 16 (≈ 19.2 to 38.3 µM)
O=CN(O)C[C@@H](CC1CCCC1)C(=O)N1CCCN1C(=O)c1ccc(F)cc1 [Example 35, N-{(2R)-Cyclopentylmethyl-3-[2-(4-fluorobenzoyl)-pyrazolidin-1-yl]-3-oxo-propyl}-N-hydroxyformamide] |  |  |  | 4 to 8 (≈ 10.2 to 20.4 µM) | 0.125 (≈ 0.319 µM) | 16 (≈ 40.9 µM)
O=CN(O)C[C@@H](CC1CCCC1)C(=O)N1CCCN1C(=O)c1cccnc1 [Example 36, N-{(2R)-Cyclopentylmethyl-3-[2-(pyridine-3-Carbonyl)-pyrazolidin-1-yl]-3-oxo-propyl}N-hydroxyformamide] |  |  |  | 2 to 32 (≈ 5.34 to 85.5 µM) | 0.125 (≈ 0.334 µM) | 8 (≈ 21.4 µM)
COc1ccccc1NC(=O)N1CCCN1C(=O)[C@H](CC1CCCC1)CN(O)C=O [Example 38, 2-[(2R)-Cyclopentylmethyl-3-(formylhydroxyamino)-propionyl]-pyrazolidine-1-Carboxylic acid (2-methoxyphenyl)amide] | 1 to 2 | 0.25 (≈ 0.597 µM) | 8 to 16 |  |  | 
O=CN(O)C[C@@H](CC1CCCC1)C(=O)N1CCCN1C(=O)Nc1ccccc1 [Example 39, 2-[(2R)-Cyclopentylmethyl-3-(formylhydroxyamino)-propionyl]-pyrazolidine-1-Carboxylic acid phenylamide] |  |  |  | 0.125 to 2 (≈ 0.322 to 5.15 µM) | < 0.125 | 4 to 16 (≈ 10.3 to 41.2 µM)
O=CN(O)C[C@@H](CC1CCCC1)C(=O)N1CCCN1C(=O)Nc1ccc(F)cc1 [Example 40] |  |  |  | 0.125 to 2 (≈ 0.308 to 4.92 µM) | < 0.125 | 8 to 16 (≈ 19.7 to 39.4 µM)
COc1cccc(NC(=O)N2CCCN2C(=O)[C@H](CC2CCCC2)CN(O)C=O)c1 [Example 41, 2-[(2R)-Cyclopentylmethyl-3-(formylhydroxyamino)-propionyl]-pyrazolidine-1-Carboxylic acid (3-methoxyphenyl)amide] |  |  |  | 0.125 to 2 (≈ 0.299 to 4.78 µM) | < 0.125 | 4 to 8 (≈ 9.56 to 19.1 µM)
O=C(C[C@@H](CC1CCCC1)C(=O)N1CCCCN1C(=O)c1ccco1)NO [Example 44, (3R)-Cyclopentylmethyl-4-[2-(furan-2-Carbonyl)-tetrahydropyridazin-1-yl]-N-hydroxy-4-oxo-butyramide] | 0.06 to 0.125 | 0.6 (≈ 1.59 µM) | 2 to 4 |  |  | 
(2R)-Cyclopentylmethyl-3-[2-(furan-2-Carbonyl)-pyrazolidin-1-yl]-3-oxo-propyl}formamide [Example 25] | <0.125 to 1 | <0.125 | 4 to 8 |  |  | 
(2R)-Cyclopentylmethyl-3-[2-(furan-2-Carbonyl)-tetrahydropyridazin-1-yl]-3-oxo-propyl}formamide [Example 1] | <0.125 to 0.25 | <0.125 | 0.5 to 2 |  |  | 
